# Source: ChEMBL document CHEMBL1201862, “PubChem BioAssay data set” (2004)
#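 48-hour exposure; five concentrations; linearly interpolated endpoints. Here, GI50 denotes the concentration required for 50% inhibition of growth.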 The source made the active and inactive calls. Cut-off read from the data, not from the text of the source: active = GI50 up to about 1.1 µM and inactive = higher.
# Assays:
# Experiment in all cases: NCI tumour cell line growth inhibition, 48 h
# A549 = test system: A549
# CCRF-CEM = test system: CCRF-CEM
# DU-145 = test system: DU-145
# EKVX = test system: EKVX
# HCT-116 = test system: HCT-116
# HOP-62 = test system: HOP-62
# HT-29 = test system: HT-29
# LOX IMVI = test system: LOX IMVI
# M14 = test system: M14
# MDA-N = test system: MDA-N
# NCI-H23 = test system: NCI-H23
# OVCAR-5 = test system: OVCAR-5
# OVCAR-8 = test system: OVCAR-8
# PC-3 = test system: PC-3
# SK-OV-3 = test system: SK-OV-3
# SN12C = test system: SN12C
# SNB-19 = test system: SNB-19
# SNB-75 = test system: SNB-75
# SR = test system: SR
# DLD-1 = test system: DLD-1
SMILES,GI50 (A549),GI50 (CCRF-CEM),GI50 (DU-145),GI50 (EKVX),GI50 (HCT-116),GI50 (HOP-62),GI50 (HT-29),GI50 (LOX IMVI),GI50 (M14),GI50 (MDA-N),GI50 (NCI-H23),GI50 (OVCAR-5),GI50 (OVCAR-8),GI50 (PC-3),GI50 (SK-OV-3),GI50 (SN12C),GI50 (SNB-19),GI50 (SNB-75),GI50 (SR),GI50 (DLD-1)
Nc1ccn(CC(O)c2cc3ccccc3[nH]2)c(=O)n1 (stereo not given),> 100 µM (inactive),> 100 µM (inactive),> 100 µM (inactive),> 100 µM (inactive),> 100 µM (inactive),> 100 µM (inactive),> 100 µM (inactive),> 100 µM (inactive),> 100 µM (inactive),> 100 µM (inactive),> 100 µM (inactive),> 100 µM (inactive),> 100 µM (inactive),> 100 µM (inactive),> 100 µM (inactive),> 100 µM (inactive),> 100 µM (inactive),> 100 µM (inactive),> 100 µM (inactive),
CCC1=NC(N/N=C/c2ccccc2O)=N/C1=C\c1ccccc1O,12.9 µM (inactive),3.94 µM (inactive),18.2 µM (inactive),10.2 µM (inactive),7.59 µM (inactive),8.55 µM (inactive),4.81 µM (inactive),5.61 µM (inactive),10.1 µM (inactive),17 µM (inactive),14.4 µM (inactive),26.7 µM (inactive),8.57 µM (inactive),15.5 µM (inactive),12.4 µM (inactive),21.3 µM (inactive),14.6 µM (inactive),17.5 µM (inactive),27.9 µM (inactive),
CS[C@]12C(=O)C[C@@]3(C)[C@@H](CC[C@]3(O)C(=O)CO)[C@@H]1CCC1=CC(=O)CC[C@@]12C,> 100 µM (inactive),42.8 µM (inactive),> 100 µM (inactive),> 100 µM (inactive),> 100 µM (inactive),> 100 µM (inactive),88.5 µM (inactive),> 100 µM (inactive),46 µM (inactive),26.6 µM (inactive),> 100 µM (inactive),> 100 µM (inactive),> 100 µM (inactive),55 µM (inactive),> 100 µM (inactive),> 100 µM (inactive),> 100 µM (inactive),> 100 µM (inactive),35 µM (inactive),
O=C(O)c1cc2c(cc1CC(Cc1ccc3c(c1)CCCC3)C(=O)O)CCCC2 (stereo not given),> 100 µM (inactive),67.5 µM (inactive),> 100 µM (inactive),56 µM (inactive),> 100 µM (inactive),> 100 µM (inactive),> 100 µM (inactive),94.4 µM (inactive),> 100 µM (inactive),> 100 µM (inactive),> 100 µM (inactive),> 100 µM (inactive),> 100 µM (inactive),> 100 µM (inactive),> 100 µM (inactive),> 100 µM (inactive),60 µM (inactive),> 100 µM (inactive),> 100 µM (inactive),
O=C(O)c1ccccc1.[Ag],6.81 µM (inactive),1.99 µM (inactive),17.5 µM (inactive),26.6 µM (inactive),6.32 µM (inactive),21.3 µM (inactive),20 µM (inactive),11.1 µM (inactive),19.5 µM (inactive),7.91 µM (inactive),22.6 µM (inactive),22.9 µM (inactive),28.1 µM (inactive),15.8 µM (inactive),17.4 µM (inactive),23 µM (inactive),39.4 µM (inactive),3.36 µM (inactive),5.12 µM (inactive),
N=c1c2c(=S)n(-c3ccccc3)c(=S)n(-c3ccccc3)c2nc(SCCN2CCCC2)n1-c1ccccc1,2.39 µM (inactive),0.347 µM (active),1.76 µM (inactive),2.49 µM (inactive),2.09 µM (inactive),3.4 µM (inactive),1.81 µM (inactive),1.63 µM (inactive),1.6 µM (inactive),2.05 µM (inactive),2.9 µM (inactive),17.5 µM (inactive),2.01 µM (inactive),1.75 µM (inactive),12.6 µM (inactive),1.86 µM (inactive),15.2 µM (inactive),2.66 µM (inactive),0.136 µM (active),
O=c1cc(-c2ccccc2)oc2c1ccc1nc3ccccc3c(O)c12,45.1 µM (inactive),54.6 µM (inactive),61.2 µM (inactive),> 100 µM (inactive),26.4 µM (inactive),88.1 µM (inactive),> 100 µM (inactive),12.5 µM (inactive),> 100 µM (inactive),> 100 µM (inactive),89.1 µM (inactive),> 100 µM (inactive),80.5 µM (inactive),> 100 µM (inactive),43.7 µM (inactive),66.1 µM (inactive),> 100 µM (inactive),34.9 µM (inactive),40.7 µM (inactive),
O=C1CCC(CCc2nc3ccccc3[nH]2)(c2ccccc2)C(=O)N1 (stereo not given),> 100 µM (inactive),> 100 µM (inactive),> 100 µM (inactive),62.4 µM (inactive),> 100 µM (inactive),> 100 µM (inactive),> 100 µM (inactive),> 100 µM (inactive),> 100 µM (inactive),> 100 µM (inactive),> 100 µM (inactive),> 100 µM (inactive),> 100 µM (inactive),> 100 µM (inactive),> 100 µM (inactive),> 100 µM (inactive),> 100 µM (inactive),86.1 µM (inactive),> 100 µM (inactive),
CCN1C(=O)/C(=C/Nc2ccccc2)S/C1=N/Nc1nc(-c2ccc(O)c(O)c2)cs1,33.7 µM (inactive),4.53 µM (inactive),5.64 µM (inactive),16.9 µM (inactive),8.63 µM (inactive),6.22 µM (inactive),29.8 µM (inactive),6.08 µM (inactive),5.61 µM (inactive),1.71 µM (inactive),7.18 µM (inactive),> 100 µM (inactive),5.07 µM (inactive),33.9 µM (inactive),33.5 µM (inactive),4.24 µM (inactive),4.66 µM (inactive),3.05 µM (inactive),2.7 µM (inactive),
N#Cc1c2nc3ccccc3nc2n2ccc3ccccc3c12,> 100 µM (inactive),> 100 µM (inactive),,> 100 µM (inactive),54 µM (inactive),,> 100 µM (inactive),,> 100 µM (inactive),,68.4 µM (inactive),> 100 µM (inactive),> 100 µM (inactive),,> 100 µM (inactive),> 100 µM (inactive),> 100 µM (inactive),> 100 µM (inactive),,> 100 µM (inactive)
Cc1ccc(CC(Cc2ccc(C)cc2C(=O)O)C(=O)O)cc1 (stereo not given),> 100 µM (inactive),> 100 µM (inactive),> 100 µM (inactive),> 100 µM (inactive),> 100 µM (inactive),> 100 µM (inactive),> 100 µM (inactive),> 100 µM (inactive),> 100 µM (inactive),> 100 µM (inactive),> 100 µM (inactive),> 100 µM (inactive),> 100 µM (inactive),> 100 µM (inactive),> 100 µM (inactive),> 100 µM (inactive),> 100 µM (inactive),> 100 µM (inactive),> 100 µM (inactive),
O=CNC(Cc1c[nH]cn1)C(=O)O (stereo not given),> 100 µM (inactive),> 100 µM (inactive),> 100 µM (inactive),> 100 µM (inactive),> 100 µM (inactive),> 100 µM (inactive),> 100 µM (inactive),> 100 µM (inactive),> 100 µM (inactive),> 100 µM (inactive),> 100 µM (inactive),> 100 µM (inactive),> 100 µM (inactive),> 100 µM (inactive),> 100 µM (inactive),> 100 µM (inactive),> 100 µM (inactive),> 100 µM (inactive),> 100 µM (inactive),
CC1=C(C)C(=O)C(C2=C(C3=CC(=O)C(C)=C(C)C3=O)C(=O)c3ccccc3C2=O)=CC1=O,5.21 µM (inactive),0.619 µM (active),2.95 µM (inactive),2.12 µM (inactive),2.14 µM (inactive),14.7 µM (inactive),2.2 µM (inactive),2.41 µM (inactive),1.82 µM (inactive),1.91 µM (inactive),2.79 µM (inactive),13 µM (inactive),2.38 µM (inactive),2.61 µM (inactive),16.5 µM (inactive),1.85 µM (inactive),11.2 µM (inactive),9.79 µM (inactive),1.47 µM (inactive),
COc1cc(OC)c2nc(C)c(CCCl)c(Cl)c2c1,> 100 µM (inactive),> 100 µM (inactive),> 100 µM (inactive),> 100 µM (inactive),> 100 µM (inactive),> 100 µM (inactive),> 100 µM (inactive),> 100 µM (inactive),> 100 µM (inactive),> 100 µM (inactive),> 100 µM (inactive),> 100 µM (inactive),> 100 µM (inactive),> 100 µM (inactive),> 100 µM (inactive),> 100 µM (inactive),> 100 µM (inactive),> 100 µM (inactive),> 100 µM (inactive),
CN(C)/C=C/c1c2c(nc3ccccc13)C(=O)c1cccnc1C2=O,0.912 µM (active),1.84 µM (inactive),0.416 µM (active),2.25 µM (inactive),0.197 µM (active),0.0579 µM (active),2.2 µM (inactive),< 0.01 µM (active),0.218 µM (active),0.54 µM (active),0.592 µM (active),1.45 µM (inactive),0.407 µM (active),0.542 µM (active),0.792 µM (active),0.532 µM (active),0.562 µM (active),0.432 µM (active),0.221 µM (active),
